NC(=O)c1ccccc1N
Settings | solubility (mole fraction)
in THF, 273.15 K | 0.226
in THF, 279.15 K | 0.237
in THF, 283.65 K | 0.245
in THF, 289.15 K | 0.255
in THF, 293.45 K | 0.263
in THF, 299.15 K | 0.275
in THF, 303.35 K | 0.284
in THF, 309.15 K | 0.296
in THF, 313.75 K | 0.31
in THF, 319.15 K | 0.326
in THF, 323.65 K | 0.339
in acetone, 273.15 K | 0.164
in acetone, 279.15 K | 0.181
in acetone, 284.15 K | 0.193
in acetone, 289.15 K | 0.208
in acetone, 293.35 K | 0.223
in acetone, 298.95 K | 0.243
in acetone, 303.35 K | 0.265
in acetone, 308.65 K | 0.292
in acetone, 313.15 K | 0.313
in acetone, 317.15 K | 0.341
in acetone, 324.15 K | 0.386
in acetonitrile, 273.15 K | 0.01
in acetonitrile, 279.15 K | 0.0139
in acetonitrile, 283.65 K | 0.0194
in acetonitrile, 289.15 K | 0.0267
in acetonitrile, 293.45 K | 0.0371
in acetonitrile, 299.15 K | 0.0531
in acetonitrile, 303.35 K | 0.066
in acetonitrile, 309.15 K | 0.0871
in acetonitrile, 313.75 K | 0.111
in acetonitrile, 319.15 K | 0.151
in acetonitrile, 323.65 K | 0.183
in ethanol, 273.15 K | 0.0302
in ethanol, 279.15 K | 0.0356
in ethanol, 284.15 K | 0.04
in ethanol, 289.15 K | 0.0477
in ethanol, 293.35 K | 0.0554
in ethanol, 298.95 K | 0.0648
in ethanol, 303.35 K | 0.0742
in ethanol, 313.15 K | 0.105
in ethanol, 317.15 K | 0.117
in ethanol, 324.15 K | 0.143
in ethyl acetate, 273.15 K | 0.053
in ethyl acetate, 279.15 K | 0.0608
in ethyl acetate, 283.65 K | 0.0684
in ethyl acetate, 289.15 K | 0.0778
in ethyl acetate, 293.45 K | 0.0856
in ethyl acetate, 299.15 K | 0.0977
in ethyl acetate, 303.35 K | 0.108
in ethyl acetate, 309.15 K | 0.123
in ethyl acetate, 313.75 K | 0.134
in ethyl acetate, 319.15 K | 0.154
in ethyl acetate, 323.65 K | 0.169
in isobutanol, 273.15 K | 0.0101
in isobutanol, 279.15 K | 0.013
in isobutanol, 284.15 K | 0.0153
in isobutanol, 289.15 K | 0.0176
in isobutanol, 293.35 K | 0.0211
in isobutanol, 298.95 K | 0.0261
in isobutanol, 303.35 K | 0.0301
in isobutanol, 308.65 K | 0.0369
in isobutanol, 313.15 K | 0.044
in isobutanol, 317.15 K | 0.0504
in isobutanol, 324.15 K | 0.0629
in isopentanol, 273.15 K | 0.0117
in isopentanol, 279.15 K | 0.014
in isopentanol, 283.65 K | 0.0152
in isopentanol, 289.15 K | 0.0181
in isopentanol, 293.25 K | 0.0217
in isopentanol, 298.95 K | 0.0273
in isopentanol, 303.25 K | 0.0312
in isopentanol, 308.15 K | 0.0391
in isopentanol, 313.15 K | 0.0458
in isopentanol, 318.15 K | 0.055
in isopentanol, 323.15 K | 0.0647
in isopropanol, 273.15 K | 0.0145
in isopropanol, 279.15 K | 0.0182
in isopropanol, 284.15 K | 0.0216
in isopropanol, 289.15 K | 0.0253
in isopropanol, 293.35 K | 0.0297
in isopropanol, 298.95 K | 0.0355
in isopropanol, 303.35 K | 0.042
in isopropanol, 308.65 K | 0.0505
in isopropanol, 313.15 K | 0.0593
in isopropanol, 317.15 K | 0.0676
in isopropanol, 324.15 K | 0.0844
in methanol, 273.15 K | 0.05
in methanol, 279.15 K | 0.0604
in methanol, 284.15 K | 0.0684
in methanol, 289.15 K | 0.0798
in methanol, 293.35 K | 0.0905
in methanol, 298.95 K | 0.106
in methanol, 303.35 K | 0.123
in methanol, 308.65 K | 0.148
in methanol, 313.15 K | 0.17
in methanol, 317.15 K | 0.19
in methanol, 324.15 K | 0.229
in methyl acetate, 273.15 K | 0.0644
in methyl acetate, 279.15 K | 0.0723
in methyl acetate, 283.65 K | 0.0797
in methyl acetate, 289.15 K | 0.0892
in methyl acetate, 293.25 K | 0.1
in methyl acetate, 298.95 K | 0.114
in methyl acetate, 303.25 K | 0.127
in methyl acetate, 308.15 K | 0.144
in methyl acetate, 313.15 K | 0.163
in methyl acetate, 318.15 K | 0.186
in methyl acetate, 323.15 K | 0.208
in n-butanol, 273.15 K | 0.0162
in n-butanol, 279.15 K | 0.0198
in n-butanol, 284.15 K | 0.0232
in n-butanol, 289.15 K | 0.0268
in n-butanol, 293.35 K | 0.0312
in n-butanol, 298.95 K | 0.0362
in n-butanol, 303.35 K | 0.0423
in n-butanol, 308.65 K | 0.0492
in n-butanol, 313.15 K | 0.0579
in n-butanol, 317.15 K | 0.065
in n-butanol, 324.15 K | 0.0788
in n-hexanol, 273.15 K | 0.0141
in n-hexanol, 279.15 K | 0.0166
in n-hexanol, 283.65 K | 0.0174
in n-hexanol, 289.15 K | 0.0216
in n-hexanol, 293.25 K | 0.0246
in n-hexanol, 298.95 K | 0.0297
in n-hexanol, 303.25 K | 0.034
in n-hexanol, 308.15 K | 0.0407
in n-hexanol, 313.15 K | 0.0468
in n-hexanol, 318.15 K | 0.0557
in n-hexanol, 323.15 K | 0.0641
in n-octanol, 273.15 K | 0.0143
in n-octanol, 279.15 K | 0.0159
in n-octanol, 283.65 K | 0.0176
in n-octanol, 289.15 K | 0.0206
in n-octanol, 293.25 K | 0.0235
in n-octanol, 298.95 K | 0.0275
in n-octanol, 303.25 K | 0.0316
in n-octanol, 308.15 K | 0.0377
in n-octanol, 313.15 K | 0.0434
in n-octanol, 318.15 K | 0.0505
in n-octanol, 323.15 K | 0.0582
in n-pentanol, 273.15 K | 0.0152
in n-pentanol, 279.15 K | 0.0183
in n-pentanol, 284.15 K | 0.0207
in n-pentanol, 289.15 K | 0.0243
in n-pentanol, 293.35 K | 0.0276
in n-pentanol, 298.95 K | 0.0326
in n-pentanol, 303.35 K | 0.0379
in n-pentanol, 308.65 K | 0.044
in n-pentanol, 313.15 K | 0.0514
in n-pentanol, 317.15 K | 0.0579
in n-pentanol, 324.15 K | 0.0703
in n-propanol, 273.15 K | 0.0193
in n-propanol, 279.15 K | 0.0232
in n-propanol, 284.15 K | 0.027
in n-propanol, 289.15 K | 0.0314
in n-propanol, 293.35 K | 0.0363
in n-propanol, 303.35 K | 0.0513
in n-propanol, 308.65 K | 0.0626
in n-propanol, 313.15 K | 0.0728
in n-propanol, 317.15 K | 0.0842
in n-propanol, 324.15 K | 0.105

— BigSolDB 2.1
